Here are results for eight compounds from ChEMBL document CHEMBL2321698, “Novel Amino-Nicotinamide Derivatives as Modulators of KCNQ2/3 Potassium Channels” (2013).

Each structure is given as a SMILES string.

Assay [1] addresses T1, Voltage-gated potassium channel, KQT; KCNQ2(Kv7.2)/KCNQ3(Kv7.3) (Homo sapiens) (UniProt O43526+O43525). Kind of assay: Modulation of human KCNQ2/3 channel expressed in CHO-K1 cells by fluorescence assay relative to retigabine. It is filed as cell-based. Also noted: concentration or dose not given beside the values.
Another assay deals with Rattus norvegicus. The experiment in a line: Antinociceptive activity in po dosed Sprague-Dawley rat by low intensity tail flick test. Format: functional.
Assay [2] concerns the target T1, Voltage-gated potassium channel, KQT; KCNQ2(Kv7.2)/KCNQ3(Kv7.3) (Homo sapiens). The experiment in a line: Modulation of human KCNQ2/3 channel expressed in CHO-K1 cells by fluorescence assay. It is filed as cell-based.

The ED50 is the midpoint of the dose-response relation.

In the case of `COc1nc(N2CCOCC2)cc(C)c1C(=O)NCc1cccc(F)c1`, the Activity was found to be 155% in assay [1] and 736 nM in assay [2]. In addition, in the assay on Rattus norvegicus, it took a dose of 79 mg/kg to reach the 50% effect level (ED50).

Consider `CCSc1nc(N2CCOCC2)cc(C)c1C(=O)NCc1cccc(F)c1`, for which the Activity in assay [1] was 171%; in assay [2], 134 nM. In the assay with Rattus norvegicus, this compound yielded an ED50 of 4.3 mg/kg.

Turning to `CCCc1nc(N2CCOCC2)cc(C)c1C(=O)NCc1cccc(F)c1`, the Activity in assay [1] was 176%; in assay [2] it was 181 nM. The compound also showed a median effective dose (ED50) with Rattus norvegicus of 81 mg/kg.

Turning to `CCSc1nc(N2CCOCC2)cc(C)c1C(=O)NCCCC(C)C`, the Activity in assay [1] amounted to 215%; in assay [2], 206 nM. Also, the ED50 in the assay with Rattus norvegicus is 46 mg/kg.

Regarding `CCSc1nc(N2CCOCC2)cc(C)c1C(=O)NCCCC(C)(C)C`, the Activity in assay [1] came out at 244%; in assay [2] it was 42 nM. The ED50 in the assay on Rattus norvegicus was determined as 100 mg/kg.

In the case of `CCSc1nc(N2CCOCC2)cc(C)c1C(=O)NCc1ccc(F)cc1`, the results for the Activity in assay [1] and in assay [2] were 158% and 124 nM, respectively. In the assay on Rattus norvegicus, the ED50 is 94 mg/kg.

Take `Cc1cc(N2CCOCC2)nc(C2CC2)c1C(=O)NC[C@@H]1CCCC[C@H]1O`: the Activity came out at 245% in assay [1] and 483 nM in assay [2]. In the assay with Rattus norvegicus, this compound displayed an ED50 of 67 mg/kg.

With `CCSc1nc(N2CCOCC2)cc(C)c1C(=O)NCc1cc(C)cc(F)c1`, the Activity in assay [1] is 160%; in assay [2], 56 nM. The same compound had an ED50 in the assay on Rattus norvegicus of 78 mg/kg.
